This is an account of results in the NIST ThermoML archive (doi:10.1016/j.jct.2013.04.014).

For data set [1] the following is noted: 298.2 K; for surface tension liquid-gas: Pendant drop shape; for mass density: 101.33 kPa, Liquid, Vibrating tube method.
Data set [2] can be described thus: xn = mol fraction of the nth substance listed. Particulars: 298.2 K; for surface tension liquid-gas: Pendant drop shape; for mass density: 101.33 kPa, Liquid, Vibrating tube method.

± gives the expanded uncertainty stated by the source.

With `CCCC[n+]1ccn(C)c1.O=S(=O)([N-]S(=O)(=O)C(F)(F)F)C(F)(F)F`, in data set [1], the surface tension liquid-gas is recorded as 33.15 ± 1.1 mN/m and the mass density worked out at 1436.9 ± 2.1 kg/m3.
Taken in the same sequence, the figures for `CCCCn1cc[n+](C)c1C.O=S(=O)([N-]S(=O)(=O)C(F)(F)F)C(F)(F)F` were 34.5 ± 1.1 mN/m and 1421.2 ± 2.1 kg/m3.
Regarding `CCC[N+]1(C)CCCC1.O=S(=O)([N-]S(=O)(=O)C(F)(F)F)C(F)(F)F`, in data set [1], the surface tension liquid-gas turned out to be 35.35 ± 1.1 mN/m and the mass density came to 1431.7 ± 2.1 kg/m3.
`CCC[N+]1(C)CCCCC1.O=S(=O)([N-]S(=O)(=O)C(F)(F)F)C(F)(F)F`: in data set [1], the surface tension liquid-gas was found to be 35.17 ± 1.1 mN/m and the mass density is given as 1411.4 ± 2.1 kg/m3.
Turning to `CCC[n+]1cccc(C)c1.O=S(=O)([N-]S(=O)(=O)C(F)(F)F)C(F)(F)F`, in data set [1], the surface tension liquid-gas turned out to be 35.02 ± 1.1 mN/m and the mass density was 1449.7 ± 2.1 kg/m3.
`CCCCn1cc[n+](C)c1C.O=S(=O)([N-]S(=O)(=O)C(F)(F)F)C(F)(F)F` + CCCC[n+]1ccn(C)c1.O=S(=O)([N-]S(=O)(=O)C(F)(F)F)C(F)(F)F: the surface tension liquid-gas in data set [2] (x1 = 0.2193) was determined as 33.38 ± 1.1 mN/m; in data set [2] (x1 = 0.3981), 33.59 ± 1.1 mN/m; in data set [2] (x1 = 0.4962), 33.72 ± 1.1 mN/m; in data set [2] (x1 = 0.5995), 33.87 ± 1.1 mN/m; in data set [2] (x1 = 0.7896), 34.16 ± 1.1 mN/m; in data set [2] (x1 = 1) it was 34.5 ± 1.1 mN/m. The mass density in data set [2] (x1 = 0.2193) turned out to be 1433.8 ± 2.1 kg/m3; in data set [2] (x1 = 0.3981), 1431.2 ± 2.1 kg/m3; in data set [2] (x1 = 0.4962), 1429.6 ± 2.1 kg/m3; in data set [2] (x1 = 0.5995) it was 1428 ± 2.1 kg/m3; in data set [2] (x1 = 0.7896) it was 1424.9 ± 2.1 kg/m3; in data set [2] (x1 = 1), 1421.2 ± 2.1 kg/m3.
With `CCC[N+]1(C)CCCC1.O=S(=O)([N-]S(=O)(=O)C(F)(F)F)C(F)(F)F` + CCCC[n+]1ccn(C)c1.O=S(=O)([N-]S(=O)(=O)C(F)(F)F)C(F)(F)F, the surface tension liquid-gas in data set [2] (x1 = 0.2094) was found to be 33.63 ± 1.1 mN/m; in data set [2] (x1 = 0.3935), 34.04 ± 1.1 mN/m; in data set [2] (x1 = 0.5004), 34.27 ± 1.1 mN/m; in data set [2] (x1 = 0.5943), 34.48 ± 1.1 mN/m; in data set [2] (x1 = 0.7854), 34.89 ± 1.1 mN/m; in data set [2] (x1 = 1), 35.35 ± 1.1 mN/m. The mass density in data set [2] (x1 = 0.2094) was 1436.9 ± 2.1 kg/m3; in data set [2] (x1 = 0.3935), 1436.4 ± 2.1 kg/m3; in data set [2] (x1 = 0.5004) it was 1435.9 ± 2.1 kg/m3; in data set [2] (x1 = 0.5943), 1435.4 ± 2.1 kg/m3; in data set [2] (x1 = 0.7854), 1433.9 ± 2.1 kg/m3; in data set [2] (x1 = 1), 1431.7 ± 2.1 kg/m3.
With `CCC[N+]1(C)CCCCC1.O=S(=O)([N-]S(=O)(=O)C(F)(F)F)C(F)(F)F` + CCCC[n+]1ccn(C)c1.O=S(=O)([N-]S(=O)(=O)C(F)(F)F)C(F)(F)F, the surface tension liquid-gas in data set [2] (x1 = 0.2156) came out at 33.53 ± 1.1 mN/m; in data set [2] (x1 = 0.4069) it was 33.9 ± 1.1 mN/m; in data set [2] (x1 = 0.4988), 34.08 ± 1.1 mN/m; in data set [2] (x1 = 0.5955), 34.28 ± 1.1 mN/m; in data set [2] (x1 = 0.7958) it was 34.71 ± 1.1 mN/m; in data set [2] (x1 = 1), 35.17 ± 1.1 mN/m. In addition, the mass density in data set [2] (x1 = 0.2156) is on record as 1432.9 ± 2.1 kg/m3; in data set [2] (x1 = 0.4069), 1428.5 ± 2.1 kg/m3; in data set [2] (x1 = 0.4988), 1426.2 ± 2.1 kg/m3; in data set [2] (x1 = 0.5955) it was 1423.7 ± 2.1 kg/m3; in data set [2] (x1 = 0.7958) it was 1417.9 ± 2.1 kg/m3; in data set [2] (x1 = 1), 1411.4 ± 2.1 kg/m3.
With `CCC[n+]1cccc(C)c1.O=S(=O)([N-]S(=O)(=O)C(F)(F)F)C(F)(F)F` + CCCC[n+]1ccn(C)c1.O=S(=O)([N-]S(=O)(=O)C(F)(F)F)C(F)(F)F, the surface tension liquid-gas in data set [2] (x1 = 0.2093) is on record as 33.42 ± 1.1 mN/m; in data set [2] (x1 = 0.3996), 33.73 ± 1.1 mN/m; in data set [2] (x1 = 0.4995), 33.91 ± 1.1 mN/m; in data set [2] (x1 = 0.6047) it was 34.12 ± 1.1 mN/m; in data set [2] (x1 = 0.8024) it was 34.55 ± 1.1 mN/m; in data set [2] (x1 = 1), 35.02 ± 1.1 mN/m. Also, the mass density is given as 1440.2 ± 2.1 kg/m3 in data set [2] (x1 = 0.2093); 1442.9 ± 2.1 kg/m3 in data set [2] (x1 = 0.3996); 1444.2 ± 2.1 kg/m3 in data set [2] (x1 = 0.4995); 1445.5 ± 2.1 kg/m3 in data set [2] (x1 = 0.6047); 1447.7 ± 2.1 kg/m3 in data set [2] (x1 = 0.8024); 1449.7 ± 2.1 kg/m3 in data set [2] (x1 = 1).
Turning to `CCCC[n+]1ccn(C)c1.O=S(=O)([N-]S(=O)(=O)C(F)(F)F)C(F)(F)F` + CCCCn1cc[n+](C)c1C.O=S(=O)([N-]S(=O)(=O)C(F)(F)F)C(F)(F)F, in data set [2] (x2 = 0), the surface tension liquid-gas turned out to be 33.15 ± 1.1 mN/m and the mass density is listed as 1436.9 ± 2.1 kg/m3.
Taken in the same sequence, the figures for `CCCC[n+]1ccn(C)c1.O=S(=O)([N-]S(=O)(=O)C(F)(F)F)C(F)(F)F` + CCC[N+]1(C)CCCC1.O=S(=O)([N-]S(=O)(=O)C(F)(F)F)C(F)(F)F were 33.15 ± 1.1 mN/m and 1436.9 ± 2.1 kg/m3.
`CCCC[n+]1ccn(C)c1.O=S(=O)([N-]S(=O)(=O)C(F)(F)F)C(F)(F)F` + CCC[N+]1(C)CCCCC1.O=S(=O)([N-]S(=O)(=O)C(F)(F)F)C(F)(F)F: in data set [2] (x2 = 0), the surface tension liquid-gas turned out to be 33.15 ± 1.1 mN/m and the mass density amounted to 1436.9 ± 2.1 kg/m3.
Take `CCCC[n+]1ccn(C)c1.O=S(=O)([N-]S(=O)(=O)C(F)(F)F)C(F)(F)F` + CCC[n+]1cccc(C)c1.O=S(=O)([N-]S(=O)(=O)C(F)(F)F)C(F)(F)F: in data set [2] (x2 = 0), the surface tension liquid-gas was 33.15 ± 1.1 mN/m and the mass density was 1436.9 ± 2.1 kg/m3.
